The values that follow come from ChEMBL document CHEMBL1135472 (J Med Chem, 2002).

One may read the inhibition as the relative decrease from the control value, in per cent. As usually defined, the IC50 is the concentration at which inhibition is half-maximal. Low values mean greater potency in that assay, high ones weaker potency in that assay. Broadly, the AC50 is the concentration at which the activity in the assay is half-maximal. Low values mean activity at low concentration, high ones activity only at high concentration.

Assay [1] has as its target T1, Polyunsaturated fatty acid lipoxygenase ALOX15 (Homo sapiens) (UniProt P16050).
T1 sequence (whole entry): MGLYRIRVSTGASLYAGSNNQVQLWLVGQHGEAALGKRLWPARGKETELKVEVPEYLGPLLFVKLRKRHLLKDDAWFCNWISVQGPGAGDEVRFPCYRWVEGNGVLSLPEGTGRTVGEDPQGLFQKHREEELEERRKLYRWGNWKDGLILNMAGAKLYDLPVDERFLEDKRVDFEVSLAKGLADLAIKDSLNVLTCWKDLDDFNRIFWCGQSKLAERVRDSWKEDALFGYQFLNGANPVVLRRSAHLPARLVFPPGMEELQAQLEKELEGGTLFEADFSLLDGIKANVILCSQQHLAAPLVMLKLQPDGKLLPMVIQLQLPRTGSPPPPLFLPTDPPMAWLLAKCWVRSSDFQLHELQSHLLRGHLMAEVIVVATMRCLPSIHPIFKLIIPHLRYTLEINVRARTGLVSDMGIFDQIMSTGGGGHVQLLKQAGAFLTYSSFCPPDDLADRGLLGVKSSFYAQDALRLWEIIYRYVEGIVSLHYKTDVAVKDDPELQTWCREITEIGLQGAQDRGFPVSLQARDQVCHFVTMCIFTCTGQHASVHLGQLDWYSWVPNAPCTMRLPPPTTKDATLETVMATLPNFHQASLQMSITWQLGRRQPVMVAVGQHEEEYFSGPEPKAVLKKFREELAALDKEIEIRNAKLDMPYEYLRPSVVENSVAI
Description: Inhibitory activity against human reticulocyte 15-lipoxygenase (15-HLO). The note with it: concentration not given here.

For assay [2], the target named is T2, Polyunsaturated fatty acid lipoxygenase ALOX12 (Homo sapiens) (UniProt P18054).
T2 sequence (whole entry): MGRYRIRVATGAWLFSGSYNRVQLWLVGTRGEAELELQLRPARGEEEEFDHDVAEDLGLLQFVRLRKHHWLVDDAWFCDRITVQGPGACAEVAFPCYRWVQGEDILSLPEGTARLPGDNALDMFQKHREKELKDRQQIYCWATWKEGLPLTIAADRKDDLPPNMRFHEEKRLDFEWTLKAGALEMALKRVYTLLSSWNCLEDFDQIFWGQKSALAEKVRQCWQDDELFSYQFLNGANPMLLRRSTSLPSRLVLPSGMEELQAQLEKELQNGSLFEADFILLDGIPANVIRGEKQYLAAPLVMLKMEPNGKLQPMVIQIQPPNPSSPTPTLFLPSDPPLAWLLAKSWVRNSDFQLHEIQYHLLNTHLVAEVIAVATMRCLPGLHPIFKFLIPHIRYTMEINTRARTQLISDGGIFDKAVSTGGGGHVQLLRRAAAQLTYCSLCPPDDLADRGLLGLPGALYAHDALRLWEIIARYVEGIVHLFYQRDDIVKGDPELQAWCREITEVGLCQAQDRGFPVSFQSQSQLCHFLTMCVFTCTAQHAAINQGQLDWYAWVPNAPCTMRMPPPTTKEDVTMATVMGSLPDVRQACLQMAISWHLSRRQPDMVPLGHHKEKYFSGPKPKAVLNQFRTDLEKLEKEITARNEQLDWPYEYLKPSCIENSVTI
Description: % inhibition against human platelet 12-lipoxygenase (12-HLO). To be noted: concentration not given here.

The target in assay [3] is T3, Seed linoleate 13S-lipoxygenase-1 (Glycine max) (UniProt P08170).
T3 sequence (whole entry): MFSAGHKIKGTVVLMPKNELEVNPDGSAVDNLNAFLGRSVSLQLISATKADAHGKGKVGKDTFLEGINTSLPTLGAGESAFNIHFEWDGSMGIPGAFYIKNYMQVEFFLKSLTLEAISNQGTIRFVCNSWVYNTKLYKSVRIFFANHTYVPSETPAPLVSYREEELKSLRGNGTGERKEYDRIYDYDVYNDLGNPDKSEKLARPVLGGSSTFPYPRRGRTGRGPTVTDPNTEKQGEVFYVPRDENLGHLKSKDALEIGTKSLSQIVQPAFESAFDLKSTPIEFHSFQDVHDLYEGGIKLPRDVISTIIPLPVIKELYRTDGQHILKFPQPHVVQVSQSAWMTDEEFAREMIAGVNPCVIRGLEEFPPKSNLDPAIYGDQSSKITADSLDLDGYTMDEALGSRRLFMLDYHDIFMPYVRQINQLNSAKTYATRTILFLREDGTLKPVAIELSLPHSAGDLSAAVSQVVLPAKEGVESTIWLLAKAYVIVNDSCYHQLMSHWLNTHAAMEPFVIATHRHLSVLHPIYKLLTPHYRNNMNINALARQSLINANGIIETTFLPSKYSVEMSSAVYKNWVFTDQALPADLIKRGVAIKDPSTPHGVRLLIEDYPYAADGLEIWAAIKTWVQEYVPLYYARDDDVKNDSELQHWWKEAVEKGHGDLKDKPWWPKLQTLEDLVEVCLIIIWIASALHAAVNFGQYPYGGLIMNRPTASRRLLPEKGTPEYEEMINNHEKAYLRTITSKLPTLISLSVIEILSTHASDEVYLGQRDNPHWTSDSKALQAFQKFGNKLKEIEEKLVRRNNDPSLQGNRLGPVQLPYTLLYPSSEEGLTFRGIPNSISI
As to the kind of experiment: % inhibition against soybean 1-lipoxygenase (SLO).

Assay [4] addresses T4, Polyunsaturated fatty acid lipoxygenase ALOX12 (Homo sapiens, UniProt P18054).
T4 sequence (P18054 whole entry): T2 sequence (whole entry)
As to the kind of experiment: Inhibitory activity against human platelet 12-lipoxygenase (12-HLO).

Assay [5] addresses T5, Seed linoleate 13S-lipoxygenase-1 (Glycine max, UniProt P08170).
T5 sequence (P08170 whole entry): T3 sequence (whole entry)
Description: Inhibitory activity against soybean 1-lipoxygenase (SLO).

The target in assay [6] is T1, Polyunsaturated fatty acid lipoxygenase ALOX15 (Homo sapiens). As to the kind of experiment: Inhibitory activity against human reticulocyte 15-lipoxygenase (15-HLO); NI is no inhibition.
For assay [7], the target named is T2, Polyunsaturated fatty acid lipoxygenase ALOX12 (Homo sapiens). Description: percent inhibition against human platelet 12-lipoxygenase (12-HLO); NI is no inhibition.
Assay [8] addresses T3, Seed linoleate 13S-lipoxygenase-1 (Glycine max). Description: percent inhibition against soybean 1-lipoxygenase (SLO);NI is no inhibition.
The nature of assay [9]: Inhibition ratio of human reticulocyte 15-lipoxygenase (15-HLO)/ human platelet 12-lipoxygenase (12-HLO); NI is no inhibition.
The target of assay [10] is T6, Polyunsaturated fatty acid lipoxygenase ALOX15 (Homo sapiens, UniProt P16050).
T6 sequence (P16050 whole entry): T1 sequence (whole entry)
Description: Concentration that cause 50% activation of human reticulocyte 15-lipoxygenase (15-HLO).

Assay [11] deals with T1, Polyunsaturated fatty acid lipoxygenase ALOX15 (Homo sapiens). As to the kind of experiment: Compound was evaluated for the percent increase in activation concentration of human reticulocyte 15-lipoxygenase (15-HLO).

Structures are written as SMILES. Active and inactive are the calls of the source. The calls are words filed in the database; no cut-off is given here.

With `COc1cc(C[C@@H](C)[C@@H](C)Cc2cc(OC)c(OC)cc2[N+](=O)[O-])c([N+](=O)[O-])cc1OC`, the inhibition in [1], in assay [2] and in [3] was 0% throughout.
Consider `C[C@H](Cc1cc(O)c(O)cc1Br)[C@@H](C)Cc1cc(O)c(O)cc1Br`, for which the half-maximal inhibitory concentration (IC50) in assay [4] came to 430 nM; in [5] it was 57 nM.
The matching figures for `CCc1cc(O)c(O)cc1C[C@@H](C)[C@@H](C)Cc1cc(O)c(O)cc1CC`: 3100 nM and 140 nM.
On to `COc1ccc(C[C@@H](C)[C@@H](C)Cc2ccc(OC)c(OC)c2)cc1OC`, for which the inhibition entry in assay [6], in assay [7], in assay [8] and in assay [9] was “inactive” each time.
With `COc1cc(Cl)c(C[C@@H](C)[C@@H](C)Cc2cc(OC)c(OC)cc2Cl)cc1OC`, the inhibition entry in assay [6], in assay [7], in assay [8] and in [9] was “inactive” throughout.
On to `CCC(=O)Oc1ccc(C[C@@H](C)[C@@H](C)Cc2ccc(OC(=O)CC)c(OC(=O)CC)c2)cc1OC(=O)CC`, for which half-maximal activity in [10] (AC50) was put at 300 nM. The molecule also showed an activation in assay [11] of 22%. Further, the inhibition in assay [2] and in assay [3] was 0% in each case.
The molecule `C[C@H](Cc1cc(O)c(O)cc1[N+](=O)[O-])[C@@H](C)Cc1cc(O)c(O)cc1[N+](=O)[O-]` returned an IC50 in [4] of 360 nM.
In the case of `COc1cc(C[C@@H](C)[C@@H](C)Cc2cc(OC)c(OC)cc2C(C)=O)c(C(C)=O)cc1OC`, the inhibition entry in [6], in assay [7], in assay [8] and in assay [9] was “inactive” each time.
Regarding `CC(=O)Oc1ccc(C[C@@H](C)[C@@H](C)Cc2ccc(OC(C)=O)c(OC(C)=O)c2)cc1OC(C)=O`, the inhibition in [1], in assay [2] and in assay [3] was 0% in each case.
Consider `CCC(=O)Oc1cc(C[C@@H](C)[C@@H](C)Cc2cc(OC(=O)CC)c(OC(=O)CC)cc2[N+](=O)[O-])c([N+](=O)[O-])cc1OC(=O)CC`, for which the inhibition in [1], in assay [2] and in assay [3] was 0% in each case.
Regarding `CCCC(=O)Oc1ccc(C[C@@H](C)[C@@H](C)Cc2ccc(OC(=O)CCC)c(OC(=O)CCC)c2)cc1OC(=O)CCC`, in assay [10], half-maximal activity (AC50) was put at 300 nM. This molecule also gave an activation in [11] of 77%. For the same molecule, the inhibition in [2] and in assay [3] was 0% throughout.
For `C[C@H](Cc1cc(O)c(O)cc1Cl)[C@@H](C)Cc1cc(O)c(O)cc1Cl`, the IC50 is 360 nM in assay [4] and 65 nM in [5].
On to `C[C@H](Cc1ccc(OCOC(=O)C(C)(C)C)c(OCOC(=O)C(C)(C)C)c1)[C@@H](C)Cc1ccc(OCOC(=O)C(C)(C)C)c(OCOC(=O)C(C)(C)C)c1`, for which the inhibition in [1], in assay [2] and in [3] was 0% in each case.
Regarding `CC(C)C(=O)Oc1ccc(C[C@@H](C)[C@@H](C)Cc2ccc(OC(=O)C(C)C)c(OC(=O)C(C)C)c2)cc1OC(=O)C(C)C`, the AC50 in assay [10] is 500 nM. Further, the activation in assay [11] worked out at 70%. In addition, the inhibition in assay [2] and in assay [3] was 0% in each case.
Regarding `COc1cc(C[C@@H](C)[C@@H](C)Cc2cc(OC)c(OC)cc2NC(C)=O)c(NC(C)=O)cc1OC`, the inhibition entry in assay [6], in [7], in assay [8] and in assay [9] was “inactive” throughout.
`COc1cc(Br)c(C[C@@H](C)[C@@H](C)Cc2cc(OC)c(OC)cc2Br)cc1OC`: the inhibition entry in [6], in assay [7], in assay [8] and in [9] was “inactive” each time.
Regarding `COc1cc(C[C@@H](C)[C@@H](C)Cc2ccc(O)c(O)c2)ccc1O`, the IC50 is 14000 nM in [4] and 170 nM in assay [5].
As to `C[C@H](Cc1ccc(O)c(O)c1)[C@@H](C)Cc1ccc2c(c1)OC(C)(C)O2`, the IC50 in assay [4] amounted to 2200 nM; in assay [5], 140 nM.
Turning to `COc1cc(N)c(C[C@@H](C)[C@@H](C)Cc2cc(OC)c(OC)cc2N)cc1OC`, the inhibition in assay [1], in assay [2] and in [3] was 0% throughout.
For `CCCCCC(=O)Oc1ccc(C[C@@H](C)[C@@H](C)Cc2ccc(OC(=O)CCCCC)c(OC(=O)CCCCC)c2)cc1OC(=O)CCCCC`, the AC50 in assay [10] was 200 nM. In [11], this molecule had an activation of 70%. The inhibition in assay [2] and in [3] was 0% each time.
Molecule `CC(=O)c1cc(O)c(O)cc1C[C@@H](C)[C@@H](C)Cc1cc(O)c(O)cc1C(C)=O` yielded an IC50 in [4] of 26000 nM.
